Measured values taken from ChEMBL document CHEMBL5316270 (J Med Chem, 2023).
Activity calls are given as the source filed them. No cut-off for these calls is given here.

What was measured:
mTORC1 [1] = target: T1, mTORC1 (Homo sapiens, UniProt P42345+Q8N122+Q9BVC4); type: cell-based, MDA-MB-468
mTORC1 [2] = target: T1, mTORC1; type: cell-based, MDA-MB-468; remark: listed apart in the source
cells = type: cell-based; conditions: Homo sapiens, MDA-MB-468
NCI-H2122 [3] = assay: Antitumor activity against human NCI-H2122 cells harboring KRAS G12C mutation xenografted in Balb/c nude mouse assessed as reduction in tumor volume at 100 mg/kg,ip qd by caliper measurement analysis; type: functional, organism-based
NCI-H2122 [4] = assay: Antitumor activity against human NCI-H2122 cells harboring KRAS G12C mutation xenografted in Balb/c nude mouse assessed as reduction in tumor volume at 100 mg/kg,ip qd co-treated with RMC-627 at 10 mg/kg,ip qw by caliper measurement analysis; type: functional, organism-based
[5] = Toxicity in Balb/c nude mouse xenografted with human NCI-H2122 cells harboring KRAS G12C mutation assessed as body weight loss at 100 mg/kg,ip qd co-treated with RMC-627 at 10 mg/kg,ip qw; type: organism-based; conditions: in vivo
NCI-H2122 [6] = assay: Antitumor activity against human NCI-H2122 cells harboring KRAS G12C mutation xenografted in Balb/c nude mouse assessed as induction of apoptosis by measuring caspase-3 level at 100 mg/kg,ip qd co-treated with RMC-627 at 10 mg/kg,ip qw by immunostaining based microscopy; type: functional, organism-based
NCI-H2122 [7] = assay: Antitumor activity against human NCI-H2122 cells harboring KRAS G12C mutation xenografted in Balb/c nude mouse assessed as induction of apoptosis by measuring caspase-3 level at 100 mg/kg,ip qd by immunostaining based microscopy; type: functional, organism-based
Mus musculus [8] = assay: In vivo inhibition of mTORC1 in human MCF7 cells harboring PIK3CA […] mutation xenografted in Balb/c nude mouse assessed as inhibition of tumor p4EBP1 level at 1 mg/kg,ip and measured at 4 hrs by MSD analysis; type: functional, organism-based
Mus musculus [9] = assay: In vivo inhibition of mTORC1 in human MCF7 cells harboring PIK3CA […] mutation xenografted in Balb/c nude mouse assessed as inhibition of tumor p4EBP1 level at 1 mg/kg,ip and measured after 24 hrs by MSD analysis; type: functional, organism-based
Mus musculus [10] = assay: In vivo inhibition of mTORC1 in human MCF7 cells harboring PIK3CA […] mutation xenografted in Balb/c nude mouse assessed as inhibition of tumor p4EBP1 level at 5 mg/kg,po and measured upto 48 hrs by MSD analysis; type: functional, organism-based

IC50 (mTORC1 [1]) [nM]	IC50 (mTORC1 [2]) [nM]	IC50 (cells) [nM]	Structure (SMILES)	further results
0.24	1.3	13	CO[C@H]1C[C@@H]2CC[C@@H](C)[C@@](O)(O2)C(=O)C(=O)N2CCCC[C@H]2C(=O)O[C@H]([C@H](C)C[C@@H]2CC[C@@H](OC(=O)NCCOCCOCCOCCOCCOCCOCCOCCOCCC(=O)NCCCCn3nc(-c4ccc5oc(N)nc5c4)c4c(N)ncnc43)[C@H](OC)C2)C[C@@H](O)[C@H](C)/C=C(\C)[C@@H](O)[C@@H](OC)C(=O)[C@H](C)C[C@H](C)/C=C/C=C/C=C/1C	–
0.49	1.4	8.4	CO[C@H]1C[C@@H]2CC[C@@H](C)[C@@](O)(O2)C(=O)C(=O)N2CCCC[C@H]2C(=O)O[C@H]([C@H](C)C[C@@H]2CC[C@@H](OC(=O)NCCOCCOCCOCCOCCOCCOCCOCCOCCC(=O)NCCCCn3nc(-c4ccc5oc(N)nc5c4)c4c(N)ncnc43)[C@H](OC)C2)C[C@@H](OC)[C@H](C)/C=C(\C)[C@@H](O)[C@@H](OC)C(=O)[C@H](C)C[C@H](C)/C=C/C=C/C=C/1C	–
0.19	0.97	35	CO[C@H]1C[C@@H]2CC[C@@H](C)[C@@](O)(O2)C(=O)C(=O)N2CCCC[C@H]2C(=O)O[C@H]([C@H](C)C[C@@H]2CC[C@@H](OC(=O)NCCOCCOCCOCCOCCOCCOCCOCCOCCC(=O)NCCS(=O)(=O)c3ccc(C(=O)N4CCOc5ccc(-c6ccc(N)nc6)cc5C4)c(C)c3F)[C@H](OC)C2)C[C@@H](O)[C@H](C)/C=C(\C)[C@@H](O)[C@@H](OC)C(=O)[C@H](C)C[C@H](C)/C=C/C=C/C=C/1C	–
0.17	1.6	35	CO[C@H]1C[C@@H]2CC[C@@H](C)[C@@](O)(O2)C(=O)C(=O)N2CCCC[C@H]2C(=O)O[C@H]([C@H](C)C[C@@H]2CC[C@@H](OC(=O)NCCOCCOCCOCCOCCOCCOCCOCCOCCC(=O)N3CCc4cc(Cn5nc(-c6ccc7oc(N)nc7c6)c6c(N)ncnc65)ccc4C3)[C@H](OC)C2)C[C@@H](O)[C@H](C)/C=C(\C)[C@@H](O)[C@@H](OC)C(=O)[C@H](C)C[C@H](C)/C=C/C=C/C=C/1C [RMC-5552]	–

More lines, now with the values behind:

Structure (SMILES)	IC50 (mTORC1 [1]) [nM]	IC50 (mTORC1 [2]) [nM]	IC50 (cells) [nM]	further results
C=CC(=O)N1CCN(c2nc(=O)n(-c3c(C)ccnc3C(C)C)c3nc(-c4c(O)cccc4F)c(F)cc23)[C@@H](C)C1 [SOTORASIB]	–	–	–	Activity (NCI-H2122 [3]): inactive; Activity (NCI-H2122 [4]): Active; Activity [5]: Non-Toxic; Activity (NCI-H2122 [6]): Active; Activity (NCI-H2122 [7]): inactive
CC(C)n1nc(-c2cc3cc(O)ccc3[nH]2)c2c(N)ncnc21	–	–	38	–
CO[C@H]1C[C@@H]2CC[C@@H](C)[C@@](O)(O2)C(=O)C(=O)N2CCCC[C@H]2C(=O)O[C@H]([C@H](C)C[C@@H]2CC[C@@H](OCCCCc3cn(CCOCCOCCOCCOCCOCCOCCOCCOCCC(=O)NCCCCn4nc(-c5ccc6oc(N)nc6c5)c5c(N(C)C)ncnc54)nn3)[C@H](OC)C2)CC(=O)[C@H](C)/C=C(\C)[C@@H](O)[C@@H](OC)C(=O)[C@H](C)C[C@H](C)/C=C/C=C/C=C/1C	–	> 1000	–	–
CC(C)n1nc(-c2ccc3oc(N)nc3c2)c2c(N)ncnc21	–	–	–	inhibition (Mus musculus [8]): Active; inhibition (Mus musculus [9]): inactive
CO[C@H]1C[C@@H]2CC[C@@H](C)[C@@](O)(O2)C(=O)C(=O)N2CCCC[C@H]2C(=O)O[C@H]([C@H](C)C[C@@H]2CC[C@@H](OCCO)[C@H](OC)C2)CC(=O)[C@H](C)/C=C(\C)[C@@H](O)[C@@H](OC)C(=O)[C@H](C)C[C@H](C)/C=C/C=C/C=C/1C [EVEROLIMUS]	–	> 1000	–	inhibition (Mus musculus [10]): inactive
